According to the supplement of paper PMC5908809:

Columns and labels:
[1] = system: normal primary NK cells, pool 3 (3 donors) (IL-2 2.5 ng/mL); assay: drug sensitivity score (DSS) (DSS units); higher = more sensitive; extreme values may be limits of the assay; settings: 72 h
SNK-6 (IL-2 2.5 ng/mL) [2] = assay: as above; settings: 72 h
[3] = system: normal primary NK cells, pool 2 (3 donors) (IL-2 2.5 ng/mL); assay: as above; settings: 72 h
NK-92 (IL-2 2.5 ng/mL) [4] = assay: as above; settings: 72 h
DERL-7 (IL-2 2.5 ng/mL) [5] = assay: as above; settings: 72 h
IMC-1 (IL-2 20 ng/mL) [6] = assay: as above; settings: 72 h
NK-YS (IL-2 2.5 ng/mL) [7] = assay: as above; settings: 72 h
NKL (IL-2 2.5 ng/mL) [8] = assay: as above; settings: 72 h
[9] = system: normal primary NK cells, pool 1 (3 donors), resting (IL-2 0 ng/mL); assay: as above; settings: 72 h
YT (IL-2 2.5 ng/mL) [10] = assay: as above; settings: 72 h
[11] = system: normal primary NK cells, pool 1 (3 donors) (IL-2 2.5 ng/mL); assay: as above; settings: 72 h
KAI3 (IL-2 2.5 ng/mL) [12] = assay: as above; settings: 72 h
KHYG-1 (IL-2 2.5 ng/mL) [13] = assay: as above; settings: 72 h
[14] = system: normal NK cells expanded with K562-aAPC; assay: percent inhibition of viability; higher = more inhibition; settings: 72 h, IL-2 2.5 ng/mL
Description: (§1)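 Drug sensitivity and resistance testing on K562-aAPC-expanded normal NK cells: 5 concentrations (10-fold steps over a 10,000-fold range), 72 h at 37 °C, viability by CellTiter-Glo normalised to DMSO and benzethonium chloride controls; DSS from the fitted curve.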

[15] = system: normal NK cells expanded with K562-aAPC; assay: drug sensitivity score (DSS) (DSS units); higher = more sensitive; extreme values may be limits of the assay; settings: 72 h; IL-2 2.5 ng/mL
Description: as §1

[16] = system: normal primary NK cells, pool 3 (3 donors) (IL-2 2.5 ng/mL); assay: percent inhibition of viability; higher = more inhibition; settings: 72 h
SNK-6 (IL-2 2.5 ng/mL) [17] = assay: as above; settings: 72 h
[18] = system: normal primary NK cells, pool 2 (3 donors) (IL-2 2.5 ng/mL); assay: as above; settings: 72 h
NK-92 (IL-2 2.5 ng/mL) [19] = assay: as above; settings: 72 h
DERL-7 (IL-2 2.5 ng/mL) [20] = assay: as above; settings: 72 h
IMC-1 (IL-2 20 ng/mL) [21] = assay: as above; settings: 72 h
NK-YS (IL-2 2.5 ng/mL) [22] = assay: as above; settings: 72 h
NKL (IL-2 2.5 ng/mL) [23] = assay: as above; settings: 72 h
[24] = system: normal primary NK cells, pool 1 (3 donors), resting (IL-2 0 ng/mL); assay: as above; settings: 72 h
YT (IL-2 2.5 ng/mL) [25] = assay: as above; settings: 72 h
[26] = system: normal primary NK cells, pool 1 (3 donors) (IL-2 2.5 ng/mL); assay: as above; settings: 72 h
KAI3 (IL-2 2.5 ng/mL) [27] = assay: as above; settings: 72 h
KHYG-1 (IL-2 2.5 ng/mL) [28] = assay: as above; settings: 72 h

S=C(NCc1ccc2c(c1)OCO2)N1CCN(c2ncnc3c2oc2ccccc23)CC1 [Amuvatinib] (max concentration tested 10000 nM)
Settings | drug sensitivity score
DERL-7 (IL-2 2.5 ng/mL) [5] | 12.9
IMC-1 (IL-2 20 ng/mL) [6] | 7.59
KAI3 (IL-2 2.5 ng/mL) [12] | 4.97
KHYG-1 (IL-2 2.5 ng/mL) [13] | 7.56
NK-92 (IL-2 2.5 ng/mL) [4] | 8.04
NK-YS (IL-2 2.5 ng/mL) [7] | 7.16
NKL (IL-2 2.5 ng/mL) [8] | 11.7
SNK-6 (IL-2 2.5 ng/mL) [2] | 9.4
YT (IL-2 2.5 ng/mL) [10] | 4.88
[1] | 5.25
[3] | 5.67
[9] | 8.27
[11] | 7.49
[15] | 0.55

percent inhibition of viability [%]
Settings | 1 nM | 10 nM | 100 nM | 1000 nM | 10000 nM
DERL-7 (IL-2 2.5 ng/mL) [20] | 0.19 | 2.67 | 18 | 55.9 | 90.5
IMC-1 (IL-2 20 ng/mL) [21] | -1.71 | -0.29 | 1.01 | 41.2 | 44.1
KAI3 (IL-2 2.5 ng/mL) [27] | 3.55 | -2.41 | 7.21 | 17.6 | 54.5
KHYG-1 (IL-2 2.5 ng/mL) [28] | -5.63 | -5.61 | -1.04 | 24.3 | 73.6
NK-92 (IL-2 2.5 ng/mL) [19] | -8.12 | -11.4 | -3.54 | 36.4 | 65.1
NK-YS (IL-2 2.5 ng/mL) [22] | -2.83 | -6.84 | -2.71 | 12.6 | 91
NKL (IL-2 2.5 ng/mL) [23] | -10.5 | -7.21 | 6.91 | 53.6 | 95
SNK-6 (IL-2 2.5 ng/mL) [17] | 13.3 | -6.01 | 16.5 | 40.9 | 60.9
YT (IL-2 2.5 ng/mL) [25] | -2.59 | -1.83 | 3.31 | 19.5 | 49.5
[14] | -2.56 | -1.86 | -4.91 | 0.6 | 18.6
[16] | -1.07 | 8.45 | 6.14 | 11.8 | 60.8
[18] | -4.53 | 2.76 | 7.13 | 11.1 | 69.2
[24] | 7.55 | 15.6 | 5.58 | 28.6 | 83.9
[26] | -0.46 | 10.3 | 3.46 | 19.5 | 80.3
